Measurements as given in patent publication US20240327506A1, “METHODS AND COMPOSITION FOR THE SELECTIVE ENHANCEMENT OF ADOPTIVE CELL THERAPY” (MaineHealth, priority 2023, published 2024).

How the values were obtained:
Jurkat T-cells = assay: Transwell migration of Jurkat T-cells through collagen type-IV; format: cell-based, human; settings: peptide, SDF-1 in lower chamber
Description: FIGS. 4A-4H. […] Briefly, membranes from transwell migration chambers were coated with either native collagen type-IV or denatured collagen type-IV. T-cell variants were incubated with non-specific control peptide CP, or the RGDKGE (SEQ ID NO: 1)-containing collagen peptide (P2) and seed on the coated transwell membranes. T-cells were allowed to migrate in the presence or absence of SDF-1 added to the lower chamber for approximately 1.5 hours. Cell migration was quantified by counting the number of crystal violet stained cells that had migrated through to the underside of the coated membrane. FIG. 4A. Jurkat T-cell migration through denatured collagen type-IV in the presence of non-specific control peptide CP or RGDKGE (SEQ ID NO: 1)-containing collagen peptide P2 with SDF-1. FIG. 4B. Jurkat T-cell migration through native collagen type-IV in the presence of non-specific control peptide CP or RGDKGE (SEQ ID NO: 1)-containing collagen peptide P2 with SDF-1. FIG. 4C. Cem/C1 T-cell migration through denatured collagen type-IV in the presence of non-specific control peptide CP or RGDKGE (SEQ ID NO: 1)-containing collagen peptide P2 with SDF-1. FIG. 4D. […]
FIGS. 5A-5F. […] Cell migration was quantified by counting the number of crystal violet stained cells that had migrated through to the underside of the coated membrane. […]

Hut78 T-cells = assay: Transwell migration of Hut78 T-cells through collagen type-IV; format: cell-based, human; settings: peptide, absence of SDF-1
Description: FIGS. 4A-4H. […] Briefly, membranes from transwell migration chambers were coated with either native collagen type-IV or denatured collagen type-IV. T-cell variants were incubated with non-specific control peptide CP, or the RGDKGE (SEQ ID NO: 1)-containing collagen peptide (P2) and seed on the coated transwell membranes. T-cells were allowed to migrate in the presence or absence of SDF-1 added to the lower chamber for approximately 1.5 hours. Cell migration was quantified by counting the number of crystal violet stained cells that had migrated through to the underside of the coated membrane. FIG. 4A. Jurkat T-cell migration through denatured collagen type-IV in the presence of non-specific control peptide CP or RGDKGE (SEQ ID NO: 1)-containing collagen peptide P2 with SDF-1. FIG. 4B. Jurkat T-cell migration through native collagen type-IV in the presence of non-specific control peptide CP or RGDKGE (SEQ ID NO: 1)-containing collagen peptide P2 with SDF-1. FIG. 4C. Cem/C1 T-cell migration through denatured collagen type-IV in the presence of non-specific control peptide CP or RGDKGE (SEQ ID NO: 1)-containing collagen peptide P2 with SDF-1. FIG. 4D. Cem/C1 T-cell migration through native collagen type-IV in the presence of non-specific control peptide CP or RGDKGE (SEQ ID NO: 1)-containing collagen peptide P2. FIG. 4E. Hut78 T-cell migration through denatured collagen type-IV in the presence of non-specific control peptide CP or RGDKGE (SEQ ID NO: 1)-containing collagen peptide P2. FIG. 4F. Hut78 T-cell migration through native collagen type-IV in the presence of non-specific control peptide CP or RGDKGE (SEQ ID NO: 1)-containing collagen peptide P2. FIG. 4G Primary CD8+ T-cell migration through denatured collagen type-IV in the presence of non-specific control peptide CP or RGDKGE (SEQ ID NO: 1)-containing collagen peptide P2 with SDF-1. FIG. 4H. CD8+ T-cell migration through native collagen type-IV in the presence of non-specific control peptide CP or RGDKGE (SEQ ID NO: 1)-containing collagen peptide P2 with SDF-1. Data bars indicate the mean cell migration±S.E. *P<0.05.
Given our new observations, and the fact that many tumor types as well as immunosuppressive macrophages can secrete the small soluble RGDKGE (SEQ ID NO: 1) collagen peptide, we next sought to determine whether this soluble collagen peptide could impact T-cell migration through denatured collagen type-IV, a critical ECM component shown to be selectively enriched in tumor vessels. Briefly, membranes from transwell migration chambers were coated with either native collagen type-IV or denatured collagen type-IV. […] Cell migration was quantified following staining cells with crystal violet (6,8). […]

## QGPRGDKGE (CQGPRGDKGEC; Synthetic: Synthetic collagen RGD containing peptide P-2) [Peptide P2, synthetic version of the soluble RGDKGE-containing collagen peptide]
Jurkat T-cells; denatured collagen type-IV
  Jurkat T-cell migration: selectively inhibited
Jurkat T-cells; native collagen type-IV
  Jurkat T-cell migration: neither the soluble RGDKGE (SEQ ID NO: 1) collagen peptide P2, nor the non-specific control peptide had any significant effect
Hut78 T-cells; denatured collagen type-IV
  Hut78 T-cell migration: selectively inhibited
Hut78 T-cells; native collagen type-IV
  Hut78 T-cell migration: neither the soluble RGDKGE (SEQ ID NO: 1) collagen peptide P2, nor the non-specific control peptide had any significant effect
